Laboratory results from US20070275006A1, “IRIDOID GLYCOSIDE COMPOSITION” (priority 2006, published 2007).

System: Th1 (IL-2, IFN-γ, TNF alpha) and Th2 (IL-4, IL-5, IL-10) cytokines
Experiment: Th1 & Th2 cytokines in lymph node cells of HBsAg immunized mice by flowcytometry
Format: in vivo
Conditions: adjuvant containing HBsAg; immunized mice day 28, flowcytometry
Text: Cytokines (Th1 & Th2 responses) in serum by ELISA (Quantikine, R & D systems) and lymph node cells by flowcytometry collected from immunized mice on day 28th (Quantikine, optia Kit).
High levels of Th1 cytokines were secreted in response to MDP and FCA containing HBsAg.

CC(=O)N[C@H]1C(O)O[C@H](CO)[C@@H](O)[C@@H]1O[C@H](C)C(=O)N[C@@H](C)C(=O)N[C@H](CCC(=O)O)C(N)=O (mixture of isomers) [MDP, Muramyl dipeptide]
Th1 and Th2 cytokines in lymph nodes cell culture fluid: very low for the Th2 cytokines and increased Th1 type of immune response
